Experiments:
[1] = test system: PDK1; experiment: PDK1 assay: activation of GST-PKBα by purified PDK1 with phospholipid vesicles; format: biochemical, rabbit; conditions: for activation of PDK1 (in words) / fold-activation of GST-PKBα (PDK1 activity): lipid 10 μM in vesicles of 100 μM PtdCho, 100 μM PtdSer, 30 min at 30° C.; for order of level of activation of the 3-phosphoinositide-dependent kinase (most effective first): rabbit skeletal muscle PDK1, FIG. 6
Experimental: Assay of PDK1. The assay was carried out in two stages; in the first, GST-PKBα was incubated with PDK1 in the presence of MgATP and phospholipid vesicles to permit activation of GST-PKBα.
After 10 min at 30° C., the reactions were terminated by spotting the reaction mixture on to p81 phosphocellulose paper. The papers were washed in phosphoric acid and analysed as described previously. […] The basal GST-PKBα activity is the activity measured in the absence of PDK1.

[2] = molecular target: T1, GST-ΔPH-PDK1 (Homo sapiens, UniProt O15530); experiment: GST-ΔPH-PDK1 assay: activation of GST-PKBα; format: biochemical; conditions: lipid 10 μM in PtdCho/PtdSer vesicles
T1 construct: expressed as a GST-fusion protein in 293 cells (GST-ΔPH-PDK1, residues 1-450); made in house; host or cells: human embryonic kidney 293 cells (pEBG-2T)
T1 sequence (P31749 whole entry partner, the tested form may be a part): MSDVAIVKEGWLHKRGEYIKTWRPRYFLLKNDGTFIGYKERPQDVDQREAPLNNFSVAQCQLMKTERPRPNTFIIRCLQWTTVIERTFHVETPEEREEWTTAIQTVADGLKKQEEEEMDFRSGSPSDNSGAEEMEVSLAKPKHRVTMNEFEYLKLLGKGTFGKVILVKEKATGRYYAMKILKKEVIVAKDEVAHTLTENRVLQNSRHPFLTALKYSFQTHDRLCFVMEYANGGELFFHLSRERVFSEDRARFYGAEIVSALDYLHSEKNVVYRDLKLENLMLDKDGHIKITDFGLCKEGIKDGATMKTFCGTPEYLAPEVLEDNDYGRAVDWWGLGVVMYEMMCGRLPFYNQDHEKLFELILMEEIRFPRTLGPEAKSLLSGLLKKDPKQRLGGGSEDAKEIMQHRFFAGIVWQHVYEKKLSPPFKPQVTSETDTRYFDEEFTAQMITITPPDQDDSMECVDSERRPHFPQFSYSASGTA
T1 sequence (O15530 1-450, stated change not applied): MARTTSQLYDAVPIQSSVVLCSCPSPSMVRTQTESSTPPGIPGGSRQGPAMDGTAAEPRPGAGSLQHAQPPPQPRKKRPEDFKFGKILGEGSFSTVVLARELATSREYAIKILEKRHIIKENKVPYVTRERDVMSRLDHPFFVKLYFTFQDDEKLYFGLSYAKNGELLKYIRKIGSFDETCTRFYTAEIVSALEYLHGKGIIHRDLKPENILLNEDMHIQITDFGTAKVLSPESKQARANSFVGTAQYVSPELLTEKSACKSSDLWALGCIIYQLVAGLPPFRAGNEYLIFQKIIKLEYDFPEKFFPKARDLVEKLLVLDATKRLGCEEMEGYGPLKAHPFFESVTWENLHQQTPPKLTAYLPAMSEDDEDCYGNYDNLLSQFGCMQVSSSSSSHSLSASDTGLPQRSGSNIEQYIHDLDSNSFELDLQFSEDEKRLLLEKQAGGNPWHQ
Experimental: FIG. 15. Role of the PH domains of PKBα and PDK1. […] The assays were terminated by making the incubations 1% (by vol) in Triton X-100 as in Example 1, and the increase in specific activity of GST-PKBα was determined. The basal activity of GST-PKBα was 2.5 U/mg and that of GST-ΔPH-PKBα was 8 U/mg. At the high concentration of GST-PDK1 used in this assay the rate of activation of full length wild type GST-PKBα is not linear with time whereas the activation of GST-ΔPH-PKBα is linear. When the experiments are carried out at 20-fold lower concentrations of GST-PDK1 a similar extent of activation of wild-type GST-PKBα is achieved as that shown in the figure for GST-ΔPH-PKBα by 2.3 nM GST-PDK1. (B) as in (A) except that 0.5 μg of GST-PKBα was incubated with 2.5 nM […] in the presence of phospholipid vesicles containing 100 μM PtdCho, 100 μM PtdSer and 10 μM of either, sn-1-stearoyl-2-arachidonyl-D-PtdIns(3,4,5)P3 (Track 1); sn-1-stearoyl-2-arachidonyl-L-PtdIns(3,4,5)P3 (Track 2), sn-1,2 di-palmitoyl-D-PtdIns(3,4,5)P3 (Track 3), sn-1,2 di-palmitoyl-D-PtdIns(3,4,5)P3 (Track 4), PtdIns(4,5)P2 (purified from Folch brain fraction Track 5) and sn-1,2 di-palmitoyl-D-PtdIns-3P (Track 6). The results are presented as the increase in the specific activity of GST-PKBα (U/mg), (±SEM for 6-9 determinations, three independent experiments), relative to a control incubation in which GST-PDK1 is omitted.
Assay of GST-PDK1 and GST-DSTPK61 activity. GST-PDK1 and GST-DSTPK61 were diluted appropriately in Buffer B containing 1 mg/ml bovine serum albumin, and assayed for their ability to activate and phosphorylate GST-PKBα [21]. One unit of PDK1 activity was defined as that amount required to increase the basal activity of GST-PKBα by 1 unit of activity in one min. One unit of GST-PKBα activity was that amount of enzyme required to catalyse the phosphorylation of 1 nmol of the peptide RPRAATF (SEQ ID NO: 9) in 1 min in an assay containing 0.1 mM RPRAATF (SEQ ID NO: 9)). […]

[3] = molecular target: T2, GST-PDK1 (Homo sapiens, UniProt O15530); experiment: GST-PDK1 assay: activation and phosphorylation of GST-PKBα; format: biochemical; conditions: lipid 10 μM in PtdCho/PtdSer vesicles
T2 construct: Residues 52-556 of PDK1 were expressed in human embryonic kidney 293 cells; made in house; host or cells: human embryonic kidney 293 cells (pEBG2T)
T2 sequence (O15530 52-556): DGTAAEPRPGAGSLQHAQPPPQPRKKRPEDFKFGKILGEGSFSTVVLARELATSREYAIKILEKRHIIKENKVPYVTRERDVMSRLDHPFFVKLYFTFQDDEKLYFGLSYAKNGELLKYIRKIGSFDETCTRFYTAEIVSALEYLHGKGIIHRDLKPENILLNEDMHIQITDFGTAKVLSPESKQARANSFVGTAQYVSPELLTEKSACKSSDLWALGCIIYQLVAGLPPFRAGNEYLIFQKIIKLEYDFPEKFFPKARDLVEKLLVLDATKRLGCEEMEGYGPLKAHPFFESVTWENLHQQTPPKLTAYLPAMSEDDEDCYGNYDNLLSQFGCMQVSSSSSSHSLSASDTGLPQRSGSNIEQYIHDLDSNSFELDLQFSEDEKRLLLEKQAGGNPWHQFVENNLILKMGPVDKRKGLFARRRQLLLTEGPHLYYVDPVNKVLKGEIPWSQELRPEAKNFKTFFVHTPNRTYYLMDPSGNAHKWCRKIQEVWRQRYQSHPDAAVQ
Experimental: (§1) FIG. 12. […] In panels A and C, the assays were terminated by making the incubations 1% (by vol) in TRITON X-100™ (see Ref 21), and the increase in specific activity of GST-PKBα was determined. In panels B and D, the reactions were terminated by making the solutions 1% in SDS, the samples were subjected to SDS/polyacrylamide gel electrophoresis, and the phosphorylation was assessed by autoradiography of the Coomassie blue-stained band corresponding to GST-PKBα.
(§2) One unit of PDK1 activity was defined as that amount required to increase the basal activity of GST-PKBα by 1 unit of activity in one min.

[4] = molecular target: PKB (Homo sapiens, UniProt P31749); conditions: cited from earlier work
Chain of PKB (P31749 whole entry, species assumed): as the sequence (P31749 whole entry partner, the tested form may be a part) above

[5] = test system: PDK1; experiment: Phosphorylation of GST-PKBα by PDK1 with [γ32P]ATP; format: biochemical, rabbit; conditions: lipid 10 μM in PtdCho/PtdSer vesicles
Experimental: Solutions were stored at 4° C. at concentrations 10-fold higher than those required in the assay and used within 2-4 days.
Phosphorylation of GST-PKB ? by PDK1. The incubations were identical to the Stage 1 described above except that [γ^32P] ATP (200-400 cpm/pmol) was used instead of unlabelled ATP. The reactions were terminated by making the solution 1% (by mass) in SDS. […] The Coomassie blue-staining bands corresponding to GST-PKBα were excised and the ^32P-radioactivity associated with each band was quantified.

[6] = molecular target: T3, GST-DSTPK61 (Drosophila melanogaster, UniProt Q9W0V1); experiment: GST-DSTPK61 assay: activation and phosphorylation of GST-PKBα; format: biochemical; conditions: lipid 10 μM in PtdCho/PtdSer vesicles
T3 construct: residues 1-752 of DSTPK61 in E. coli as fusion proteins; made in house; host or cells: E. coli (pGEX-3X)
T3 sequence (Q9W0V1 85-836 Q200H/Q201E/Q317A/G443R): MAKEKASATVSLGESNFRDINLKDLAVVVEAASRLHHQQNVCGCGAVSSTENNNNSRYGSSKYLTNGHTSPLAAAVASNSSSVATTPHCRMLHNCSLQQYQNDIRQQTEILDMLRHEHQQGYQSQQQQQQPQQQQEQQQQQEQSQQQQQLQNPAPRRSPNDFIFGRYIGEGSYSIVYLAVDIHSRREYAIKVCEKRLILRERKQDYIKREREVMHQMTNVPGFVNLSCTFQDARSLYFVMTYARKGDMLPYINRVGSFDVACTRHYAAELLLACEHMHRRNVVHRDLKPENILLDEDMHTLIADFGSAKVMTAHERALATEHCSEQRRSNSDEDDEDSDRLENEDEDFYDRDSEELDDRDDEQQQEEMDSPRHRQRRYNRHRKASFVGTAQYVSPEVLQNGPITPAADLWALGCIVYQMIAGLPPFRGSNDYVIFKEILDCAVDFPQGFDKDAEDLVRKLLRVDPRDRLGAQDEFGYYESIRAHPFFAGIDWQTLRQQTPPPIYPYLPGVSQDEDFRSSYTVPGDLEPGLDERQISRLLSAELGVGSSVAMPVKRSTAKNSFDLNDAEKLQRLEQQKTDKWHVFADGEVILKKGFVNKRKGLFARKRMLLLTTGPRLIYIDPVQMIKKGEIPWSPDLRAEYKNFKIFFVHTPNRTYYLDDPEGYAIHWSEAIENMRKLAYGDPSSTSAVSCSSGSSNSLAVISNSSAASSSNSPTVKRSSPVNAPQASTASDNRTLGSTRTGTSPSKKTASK
Experimental: as §1, §2

[7] = test system: GST-PKBα; experiment: Activation of GST-PKBα after stimulation of transfected 293 cells; format: cell-based, human; conditions: versus unstimulated 293 cells
Source text: Expression of GST-PKBα in 293 cells. The DNA sequence encoding PKBα was subcloned into the eukaryotic expression vector PEBG2T that has been used to overexpress GST-fusion proteins in eukaryotic cells under an EF1α promoter. A PCR reaction was set up to generate a full length cDNA encoding the PKBα gene with a BamH1site at the 5′ end of the cDNA that is in frame with the GST sequence of the PEBG2T vector and the ATG initiation codon of PKBα, and a KpnI site at the 3′ end, using the human PCMV5-HA-PKBα plasmid. The DNA sequence of the BamH1/KpnI cDNA fragment was checked and then subcloned into the unique BamH1/KpnI restriction sites on the pEBG 2T expression vector. In order to prepare GST-PKBα, 40, 10 cm diameter dishes of human embryonic kidney 293 cells were cultured and each dish transfected with 20 μg of GST PKBα expression construct using the modified calcium phosphate method described previously for overexpression of haemaglutinin tagged PKBα in 293 cells. […]

Compound | order of level of activation of the 3-phosphoinositide-dependent kinase (most effective first) [1] | activation of GST-PKBα by GST-ΔPH-PDK1 (in words) [2] | activation of PDK1 (in words) [1] | fold-activation of GST-PKBα (PDK1 activity) [1] | activation and phosphorylation of GST-PKBα by GST-PDK1 (in words) [3] | also measured
CCCCCCCCCCCCCCCC(=O)OCC(COP(=O)(O)OC1C(O)C(O)C(OP(=O)(O)O)C(OP(=O)(O)O)C1O)OC(=O)CCCCCCCCCCCCCCC (stereo not shown) [Lipid 7, sn-1,2 di-palmitoyl PtdIns(3,4)P2] | 4 | very poor | as effective as sn-1,2-dipalmitoyl D-PtdIns(3,4,5)P3 | about 6 fold | as effective as sn-1,2-dipalmitoyl D-PtdIns(3,4,5)P3 | fold less effective in activating PDK1 than the sn-1-stearoyl-2-arachidonyl and sn-2-arachidonyl-3-stearoyl derivatives [1]: ~3 fold
PtdIns(4,5)P2 [Lipid 9] |  |  | no significant activation |  | no activation or phosphorylation | activation of PDK1 (in words) ([1]; listed as PtdIns(4,5)P2): did not activate PDK1 at all; activation of PDK1 (in words) ([1]; listed as lipid 9): did not activate PDK1; fold lower affinity of PKB than for PtdIns(3,4,5)P3 or PtdIns(3,4)P2 [4]: 10 fold; phosphorylation of GST-PKBα by PDK1 (in words) [5]: did not activate PDK1 or induce the phosphorylation; activation and phosphorylation of GST-PKBα by GST-DSTPK61 (in words) [6]: no activation or phosphorylation
insulin: insulin used to stimulate 293 cells |  |  |  |  |  | fold activation of GST-PKBα after stimulation of 293 cells [7]: 20 fold

Now from value to compound, other results behind:

order of level of activation of the 3-phosphoinositide-dependent kinase (most effective first) [1] | activation of GST-PKBα by GST-ΔPH-PDK1 (in words) [2] | Compound | activation of PDK1 (in words) [1] | fold-activation of GST-PKBα (PDK1 activity) [1] | activation and phosphorylation of GST-PKBα by GST-PDK1 (in words) [3] | also measured
2 | no activation | CCCCC/C=C\C/C=C\C/C=C\C/C=C\CCCC(=O)OC(COC(=O)CCCCCCCCCCCCCCCCC)COP(=O)(O)OC1C(O)C(OP(=O)(O)O)C(OP(=O)(O)O)C(OP(=O)(O)O)C1O (single isomer, unassigned) [Lipid 2, L-enantiomer of sn-1-stearoyl-2-arachidonyl PtdIns(3,4,5)P3] | no significant activation |  |  | fold-activation of GST-PKBα (PDK1 activity) ([1]; 2-arachidonyl PtdIns(3,4,5)P3): 1.7 fold; activation of PDK1 (in words) ([1]; listed as L-enantiomer of sn-1-stearoyl-2-arachidonyl PtdIns(3,4,5)P3): almost ineffective
 | activated more effectively | CCCCC/C=C\C/C=C\C/C=C\C/C=C\CCCC(=O)O[C@H](COC(=O)CCCCCCCCCCCCCCCCC)COP(=O)(O)O[C@H]1[C@H](O)[C@@H](OP(=O)(O)O)[C@H](OP(=O)(O)O)[C@@H](OP(=O)(O)O)[C@H]1O [Lipid 1, sn-1-stearoyl, 2-arachidonyl D-phosphatidylinositol 3,4,5-trisphosphate] | potently activated PDK1 | 13 fold |  | 

— patent publication US7842488B2, “Polynucleotides encoding a human 3-phosphoinositide- dependent protein kinase” (Medical Research Council, priority 1997, dated 2010)
